# From patent publication US10463644B2, “Uses of sesquiterpene lactone compounds and their derivatives in drugs preparation” (ACCENDATECH, priority 2013, dated 2019)
# Experiments:
# [1] = system: normal cells; experiment: Survival rate of normal cells after test compound is added (flow cytometry, Annexin V-FITC/PI); format: cell-based
# Excerpt: (§1) Take fresh or cryopreserved clinical specimen (acute myelogenous leukemia (AML, marker is CD34^+/CD38^+), chronic myelogenous leukemia (CML, Ph+/CD34+/CXCR4+), chronic lymphocytic leukemia (CLL,CD133+/CD19−/CD38−), skin cancer (CD34+), breast cancer (CD44+/CD24−/ESA+), ovarian cancer (CD44+/CD117+), brain tumor (CD133+) prostate cancer (CD44+/CD24−), head-neck squamous cell carcinoma (CD44+), laryngeal cancer (CD133+), pancreatic cancer (ESA+/CD44+/CD24+), retinoblastoma (ABCG2/ALDH1), Children hepatoblastoma (CD34+/THY1+/c-kit+), liver cancer (CD133+), malignant melanoma (CD133+), colorectal cancer (EpCAM^high/CD44+), colon adenocarcinoma (CD44^high), glioma (ABCG-2/BCRP1), gastrointestinal tumor (ABCG-2/BCRP1), nasopharynx cancer (ABCG2), brain glioma (Dlk-1/Pref-1), gastric cancer (CD45+), lung adenocarcinoma (Sca-1/CD45-/Pecam-/CD34+), lung cancer (CD133+CD34+CD44+)) of patient. Take the acute myelogenous leukemia as the example, conduct density gradient centrifugation with Ficoll and take out the middle mononuclear cells, re-suspend it with serum-free IMDM after centrifuged. Adjust the concentration of cells into 1×10^6/mL and lay 24-well plate with 1 mL in each well, and then treat 18 hours with the compound to select with corresponding concentration. Collect the cells and centrifuge them at 1500 rps for 8 minutes, re-suspend the precipitation with […], mark the antibodies related to leukemia stem cell, avoid light to incubate 30 minutes at room temperature and then centrifuge it at 1500 rps, then wash away the unbound antibody CD34^+CD38^+. Re-suspend it with 100 μl 1× Binding Buffer and add respectively 5 μl Annexin V-FITC and PI, then avoid light to incubate 15 minutes before add 200 μl 1× Binding Buffer, then use flow cytometry to examine the marked apoptosis within one hour.
# [2] = system: cancer stem cells; experiment: Survival rate of cancer stem cells after test compound is added (flow cytometry, Annexin V-FITC/PI, clinical specimen); format: cell-based, patient
# Excerpt: as §1
structure (smiles),measurement,setting,value
CN(C)C[C@@H]1C(=O)O[C@H]2[C@H]1CCC1(CC1)[C@@H]1CCC3(CC3)[C@H]21.Cl [Compound 28],Survival rate (%) All cells (Stem cells and ordinary cells),[1]; 10.0 μM,96%
same,Survival rate (%) Stem cells,[1]; 10.0 μM,94%
same,Survival rate (%) All cells (Stem cells and ordinary cells),[1]; 20.0 μM,95%
same,Survival rate (%) Stem cells,[1]; 20.0 μM,92%
same,Survival rate (%) Stem cells,"[2]; AML, 10.0 μM",87%
same,Survival rate (%) Stem cells,"[2]; AML, 20.0 μM",76%
same,Survival rate (%) Stem cells,"[2]; Brain glioma, 10.0 μM",82%
same,Survival rate (%) Stem cells,"[2]; Brain glioma, 20.0 μM",76%
same,Survival rate (%) Stem cells,"[2]; Brain tumor, 10.0 μM",82%
same,Survival rate (%) Stem cells,"[2]; Brain tumor, 20.0 μM",73%
same,Survival rate (%) Stem cells,"[2]; Breast cancer, 10.0 μM",81%
same,Survival rate (%) Stem cells,"[2]; Breast cancer, 20.0 μM",75%
same,Survival rate (%) Stem cells,"[2]; CLL, 10.0 μM",82%
same,Survival rate (%) Stem cells,"[2]; CLL, 20.0 μM",73%
same,Survival rate (%) Stem cells,"[2]; CML, 10.0 μM",85%
same,Survival rate (%) Stem cells,"[2]; CML, 20.0 μM",77%
same,Survival rate (%) Stem cells,"[2]; Children hepatoblastoma, 10.0 μM",85%
same,Survival rate (%) Stem cells,"[2]; Children hepatoblastoma, 20.0 μM",77%
same,Survival rate (%) Stem cells,"[2]; Colon adenocarcinoma, 10.0 μM",82%
same,Survival rate (%) Stem cells,"[2]; Colon adenocarcinoma, 20.0 μM",74%
same,Survival rate (%) Stem cells,"[2]; Colorectal cancer, 10.0 μM",81%
same,Survival rate (%) Stem cells,"[2]; Colorectal cancer, 20.0 μM",75%
same,Survival rate (%) Stem cells,"[2]; Gastric cancer, 10.0 μM",79%
same,Survival rate (%) Stem cells,"[2]; Gastric cancer, 20.0 μM",72%
same,Survival rate (%) Stem cells,"[2]; Gastrointestinal tumor, 10.0 μM",82%
same,Survival rate (%) Stem cells,"[2]; Gastrointestinal tumor, 20.0 μM",76%
same,Survival rate (%) Stem cells,"[2]; Glioma, 10.0 μM",85%
same,Survival rate (%) Stem cells,"[2]; Glioma, 20.0 μM",79%
same,Survival rate (%) Stem cells,"[2]; Head and neck squamous cell carcinomas, 10.0 μM",81%
same,Survival rate (%) Stem cells,"[2]; Head and neck squamous cell carcinomas, 20.0 μM",75%
same,Survival rate (%) Stem cells,"[2]; Laryngeal cancer, 10.0 μM",85%
same,Survival rate (%) Stem cells,"[2]; Laryngeal cancer, 20.0 μM",77%
same,Survival rate (%) Stem cells,"[2]; Liver cancer, 10.0 μM",82%
same,Survival rate (%) Stem cells,"[2]; Liver cancer, 20.0 μM",73%
same,Survival rate (%) Stem cells,"[2]; Lung adenocarcinoma, 10.0 μM",88%
same,Survival rate (%) Stem cells,"[2]; Lung adenocarcinoma, 20.0 μM",81%
same,Survival rate (%) Stem cells,"[2]; Lung cancer, 10.0 μM",87%
same,Survival rate (%) Stem cells,"[2]; Lung cancer, 20.0 μM",76%
same,Survival rate (%) Stem cells,"[2]; Malignant melanoma, 10.0 μM",84%
same,Survival rate (%) Stem cells,"[2]; Malignant melanoma, 20.0 μM",78%
same,Survival rate (%) Stem cells,"[2]; Nasopharynx cancer, 10.0 μM",85%
same,Survival rate (%) Stem cells,"[2]; Nasopharynx cancer, 20.0 μM",77%
same,Survival rate (%) Stem cells,"[2]; Ovarian cancer, 10.0 μM",85%
same,Survival rate (%) Stem cells,"[2]; Ovarian cancer, 20.0 μM",79%
same,Survival rate (%) Stem cells,"[2]; Pancreatic cancer, 10.0 μM",86%
same,Survival rate (%) Stem cells,"[2]; Pancreatic cancer, 20.0 μM",78%
same,Survival rate (%) Stem cells,"[2]; Prostate cancer, 10.0 μM",84%
same,Survival rate (%) Stem cells,"[2]; Prostate cancer, 20.0 μM",78%
same,Survival rate (%) Stem cells,"[2]; Retinoblastoma, 10.0 μM",84%
same,Survival rate (%) Stem cells,"[2]; Retinoblastoma, 20.0 μM",80%
same,Survival rate (%) Stem cells,"[2]; Skin cancer, 10.0 μM",84%
same,Survival rate (%) Stem cells,"[2]; Skin cancer, 20.0 μM",78%
